Patent US20140303164A1, “THERAPEUTIC COMPOUNDS” (Gilead Sciences, Inc., priority 2013, published 2014)

Legend:
HIV-IIIb = assay: Test A: Antiviral Assay in MT4 Cells; type: cell-based, HIV-1; settings: Human immunodeficiency virus 1, IIIB, MT4, 120 h; for inhibition at 0.2 µM: read-out: % inhibition at 0.2 μM; for inhibition at 2 µM: read-out: % inhibition at 2 μM
Method: Test A: Antiviral Assay in MT4 Cells
MT-4 cells were next mixed with HIV-IIIb at an m.o.i of 0.003 for 1 hour, after which time 35 μL of virus/cell mixture (2000 cells) was immediately added to each well containing 40 μL of diluted compound. The plates were then incubated at 37° C. for 5 days. […] Cell lysis was carried out by incubating at room temperature for 10 min and then chemiluminescence was read.

[1] = Test B: Cytotoxicity Assay; type: cell-based; settings: human, uninfected MT-4 cells, same protocol as Test A
In short: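 Uninfected MT-4 cells (2000 per well) incubated with diluted compound at 37° C. for 5 days, following the antiviral protocol without HIV-IIIb.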

Structure (SMILES)	inhibition at 0.2 µM (HIV-IIIb) [%]	inhibition at 2 µM (HIV-IIIb) [%]	CC50 at 5 days [1] [µM]
CC(C)(O)C#Cc1ccc(-c2cc(C(=O)NC3COC3)c3nccn3c2)c([C@H](Cc2cc(F)cc(F)c2)NC(=O)Cn2nc(C(F)(F)F)c3c2C(F)(F)[C@@H]2C[C@H]32)n1 [Compound 35D, 6-(2-((S)-1-(2-((3bS,4aR)-5,5-difluoro-3-(trifluoromethyl)-3b,4,4a,5-tetrahydro-1H-cyclopropa[3,4]cyclopenta[1,2-c]pyrazol-1-yl)acetamido)-2-(3,5-difluorophenyl)ethyl)-6-(3-hydroxy-3-methylbut-1-yn-1-yl)pyridin-3-yl)-N-(oxetan-3-yl)imidazo[1,2-a]pyridine-8-carboxamide]	28	91	14.2
COc1ccc2[nH]cc(CC(=O)N[C@@H](Cc3cc(F)cc(F)c3)c3nc(C#CC(C)(C)O)ccc3-c3ccc(Cl)c4c(NS(C)(=O)=O)nn(C)c34)c2n1 [Compound 194, (S)—N-(1-(3-(4 chloro-1-methyl-3-(methylsulfonamido)-1H-indazol-7-yl)-6-(3-hydroxy-3-methylbut-1-yn-1-yl)pyridin-2-yl)-2-(3,5-difluorophenyl)ethyl)-2-(5-methoxy-1H-pyrrolo[3,2-b]pyridin-3-yl)acetamide]	84	99	21.3
CC(C)(O)C#Cc1ccc(-c2ccc(Cl)c3c(NS(C)(=O)=O)n[nH]c23)c([C@H](Cc2cc(F)cc(F)c2)NC(=O)Cn2nc(C(F)(F)F)c3c2C(F)(F)[C@@H]2C[C@H]32)n1 [Compound 109, N—((S)-1-(3-(4-chloro-3-(methylsulfonamido)-1H-indazol-7-yl)-6-(3-hydroxy-3-methylbut-1-yn-1-yl)pyridin-2-yl)-2-(3,5-difluorophenyl)ethyl)-2-((3b-S,4aR)-5,5-difluoro-3-(trifluoromethyl)-3b,4,4a,5-tetrahydro-1H-cyclopropa[3,4]cyclopenta[1,2-c]pyrazol-1-yl)acetamide]	97	97	29.6
CNS(=O)(=O)Nc1nn(C)c2c(-c3ccc(C#CC(C)(C)O)nc3[C@H](Cc3cc(F)cc(F)c3)NC(=O)Cn3nc(C(F)F)c4c3C(F)(F)[C@@H]3C[C@H]43)ccc(Cl)c12 [Compound 123, N—((S)-1-(3-(4-chloro-1-methyl-3-((N-methylsulfamoyl)amino)-1H-indazol-7-yl)-6-(3-hydroxy-3-methylbut-1-yn-1-yl)pyridin-2-yl)-2-(3,5-difluorophenyl)ethyl)-2-((3b-S,4aR)-3-(difluoromethyl)-5,5-difluoro-3b,4,4a,5-tetrahydro-1H-cyclopropa[3,4]cyclopenta[1,2-c]pyrazol-1-yl)acetamide]	90	90	7.9
Cn1nc(NS(C)(=O)=O)c2c(Cl)ccc(-c3ccc(C#CC(C)(C)O)nc3[C@H](Cc3cc(F)cc(F)c3)NC(=O)Cn3nc(C(F)(F)F)cc3C3CC3)c21 [Compound 191, (S)—N-(1-(3-(4 chloro-1-methyl-3-(methylsulfonamido)-1H-indazol-7-yl)-6-(3-hydroxy-3-methylbut-1-yn-1-yl)pyridin-2-yl)-2-(3,5-difluorophenyl)ethyl)-2-(5-cyclopropyl-3-(trifluoromethyl)-1H-pyrazol-1-yl)acetamide]	91	91	10.1
CCNc1nn(C)c2c(-c3ccc(C#CC(C)(C)O)nc3[C@H](Cc3cc(F)cc(F)c3)NC(=O)Cn3nc(C(F)F)c4c3C(F)(F)[C@@H]3C[C@H]43)ccc(Cl)c12 [Compound 91E, N—((S)-1-(3-(4-chloro-3-(ethylamino)-1-methyl-1H-indazol-7-yl)-6-(3-hydroxy-3-methylbut-1-yn-1-yl)pyridin-2-yl)-2-(3,5-difluorophenyl)ethyl)-2-((3b-S,4aR)-3-(difluoromethyl)-5,5-difluoro-3b,4,4a,5-tetrahydro-1H-cyclopropa[3,4]cyclopenta[1,2-c]pyrazol-1-yl)acetamide]	100	100	9.38
Cn1nc(N)c2cccc(-c3ccc(C#CC(C)(C)O)nc3[C@H](Cc3cc(F)cc(F)c3)NC(=O)Cn3nc(C(F)F)c4c3C3CC3CC4)c21 (stereo partly drawn) [Compound 34, N—((S)-1-(3-(3-amino-1-methyl-1H-indazol-7-yl)-6-(3-hydroxy-3-methylbut-1-yn-1-yl)pyridin-2-yl)-2-(3,5-difluorophenyl)ethyl)-2-(3-(difluoromethyl)-5,5a,6,6a-tetrahydrocyclopropa[g]indazol-1(4H)-yl)acetamide]	78	78	8.76
Cn1nc(NS(C)(=O)=O)c2c(Cl)ccc(-c3ccc(C#CC(C)(C)O)nc3[C@H](Cc3cc(F)cc(F)c3)NC(=O)Cn3nc(C(F)F)cc3C(F)F)c21 [Compound 189, (S)-2-(3,5-bis(difluoromethyl)-1H-pyrazol-1-yl)-N-(1-(3-(4 chloro-1-methyl-3-(methylsulfonamido)-1H-indazol-7-yl)-6-(3-hydroxy-3-methylbut-1-yn-1-yl)pyridin-2-yl)-2-(3,5-difluorophenyl)ethyl)acetamide]	88	88	17.2
Cn1nc(N)c2c(C#N)ccc(-c3ccc(C#CC(C)(C)O)nc3[C@H](Cc3cc(F)cc(F)c3)NC(=O)Cn3nc(C(F)F)c4c3C(F)(F)[C@@H]3C[C@H]43)c21 [Compound 77E, N—((S)-1-(3-(3-amino-4-cyano-1-methyl-1H-indazol-7-yl)-6-(3-hydroxy-3-methylbut-1-yn-1-yl)pyridin-2-yl)-2-(3,5-difluorophenyl)ethyl)-2-((3b-S,4aR)-3-(difluoromethyl)-5,5-difluoro-3b,4,4a,5-tetrahydro-1H-cyclopropa[3,4]cyclopenta[1,2-c]pyrazol-1-yl)acetamide]	96	97	11.8
CCN1CCN(CC(=O)N[C@@H](Cc2cc(F)cc(F)c2)c2nc(C#CC(C)(C)O)ccc2-c2ccc(Cl)c3c(NS(C)(=O)=O)nn(C)c23)CC1 [Compound 197, (S)—N-(1-(3-(4 chloro-1-methyl-3-(methylsulfonamido)-1H-indazol-7-yl)-6-(3-hydroxy-3-methylbut-1-yn-1-yl)pyridin-2-yl)-2-(3,5-difluorophenyl)ethyl)-2-(4-ethylpiperazin-1-yl)acetamide]		63	15.4
COC(=O)Nc1nn(CC(=O)N[C@@H](Cc2cc(F)cc(F)c2)c2nc(C#CC(C)(C)O)ccc2-c2ccc(Cl)c3c(NS(C)(=O)=O)nn(C)c23)c2c1[C@H]1C[C@H]1C2(F)F [Compound 162, methyl ((3bS,4aR)-1-(2-(((S)-1-(3-(4-chloro-1-methyl-3-(methylsulfonamido)-1H-indazol-7-yl)-6-(3-hydroxy-3-methylbut-1-yn-1-yl)pyridin-2-yl)-2-(3,5-difluorophenyl)ethyl)amino)-2-oxoethyl)-5,5-difluoro-3b,4,4a,5-tetrahydro-1H-cyclopropa[3,4]cyclopenta[1,2-c]pyrazol-3-yl)carbamate]	81	81	22.4
